Laboratory results taken from patent US10344261B2, “Immunomodulatory conjugates” (ASCEND BIOPHARMACEUTICALS LTD, priority 2011, dated 2019).
Like-named read-outs stand apart in the source and are kept apart here.

B1: >1000 kDa oxidized mannan-MART-1: recombinant MART-1 protein linked to >1000 kDa oxidized mannan (conjugate, UniProt Q16655 1-118, looked up)
Melanoma antigen recognized …: MPREDAHFIYGYPKKGHGHSYTTAEEAAGIGILTVILGVLLLIGCWYCRRRNGYRALMDKSLHVGTQCALTRRCPQEGFDHRDSKVSLQEKNCEPVVPNAPPAYEKLSAEQSPPPYSP
modifications: conjugated to >1000 kDa oxidized mannan
notes: recombinant MART-1 protein linked to >1000 kDa oxidized mannan

Key:
[1] = system: PBMC; assay: Cytokine release assay to measure IL-6 from PBMC (ELISA); assay type: cell-based, human; details: for stimulation of IL-6 release by PBMC (in words): 6 and 24 hours; for EC50: Homo sapiens
Method: Fresh blood was collected from healthy volunteers and stored in Heparin Sodium tubes. 15 mL of blood was subsequently transferred to a 50 ml centrifugal tube and gently mixed with equal volume of DPBS. 10 ml Ficoll was slowly underlayed using pipette. The tube was centrifuged for 30 minutes at 800 g at RT without break. The buffy coat (containing PBMC) was aspirated at the interface between serum and Ficoll. The PBMC were washed with sufficient DPBS and centrifuged at 900 g to remove the Ficoll. RPMI-1640 Medium was added to the collected PBMC and the number of PBMC determined by counting. 1 ml of blood typically yields at least 1 million of PBMC.
PBMC were counted and cell densities adjusted. 100 μl of cells were added into the required number of wells such that the cell density for the IL-6 assay was 5,000/well. LD1-oxidized mannan conjugates for screening were serially diluted in DMSO. The LD1 solution was added to each well (final concentration of DMSO in assay was not more than 0.03%). The plates were incubated in a CO2 incubator at 37° C. and supernatants collected at 6 and 24 hours. At each time point of collection, the plates were centrifuged at 900 rpm for 4 minutes and the supernatents transferred to another 96 well plate. These were labelled and stored at −80° C. ELISA kits for IL-6 (Invitrogen) were used for quantitation of cytokine released. The ELISAs were performed as described in the manufacturer's instructions. The absorbances were measured by FlexStation 3. A standard curve for each cytokine was drawn each time for analyzing the data.
The Loxorubine (LOX) derivative, LD1, was synthesised and conjugated to oxidized mannan (LD1-OM) as described above. The LOX derivative, LD1, incorporates a hydrazide linkage for conjugation to aldehyde residues of oxidized mannan and an ester linkage between the linker and the LOX. LD1 oxidized mannan conjugates were used to stimulate PBMCs isolated from human donors and IL-6 cytokine release measured by ELISA.

[2] = system: MART-1-specific CD8 T cells; assay: Priming and recall of MART-1-specific T cell responses (intracellular IFNγ); assay type: cell-based, human; details: PBMC and MoDC from donors BC28 and BC29, 20 μg/ml
Method: MoDC at 2×10^5/ml (for 1:20 MoDC:T cell) in complete AB medium were added to a 24 well plate (1 ml per test condition) followed by protein or >1000 kDa oxidized mannan conjugate (10-20 μg/ml). Four hours later, 4×10^6 CD14 depleted PBMC were added to the wells in 1 ml complete AB medium. After 3 days, 25 U/ml IL-2, 10 ng/ml IL-7 and 10 ng/ml IL-15 was added. The T cells were re-stimulated 7-10 days later with 1×10^5 MoDC loaded with antigen. Twenty four hours following re-stimulation, cultures were supplemented with 25 U/ml IL-2 and again 3-4 days after. T cell cultures were typically analysed after 1 or 2 re-stimulations.
For T cell epitope peptides—Peptide loaded T2 cells (2×10^5/well) were prepared by pulsing with an irrelevant peptide (e.g., CAP-1 10 μg/ml or no peptide) and one with the peptide of interest ([…]) for 1 hour in serum free medium with 1.25 μg/ml β2-microglobulin. T2 cells were added at about a 1:5 ratio (4×10^4/well) in 100 μl to the duplicate T cell wells and incubate for 1 hour at 37° C. 5% CO2. […]
PBMC and MoDC from 2 donors (BC28 and BC29) were used for priming with MART-1 and >1000 kDa oxidized mannan conjugates (20 μg/ml) as described in Example 1. After 1 stimulation, analog and native MART-1 peptide-specific T cell responses were measured using pulsed T2 cells (FIG. 51). […]

| Molecule | stimulation of IL-6 release by PBMC (in words) ([1]; LOX at 500 μM) | Amount IL-6 (pg/ml), 6 hr ([1]; 6 hr, LOX at 500 μM) | Amount IL-6 (pg/ml), 24 hr ([1]; 24 hr, LOX at 500 μM) [pg/mL] | EC50 ([1]; 6 hr, read-out: EC50 of IL-6, 6 hr) [µM] | EC50 ([1]; 24 hr, read-out: EC50 of IL-6, 24 hr) [µM] | MART-1-specific T cell responses after priming [2] | MART-1-specific T cell responses after priming ([2]; listed as MART-1 >1000 kDa oxidized mannan) |
| --- | --- | --- | --- | --- | --- | --- | --- |
| C=CCn1c(=O)n([C@@H]2O[C@H](CO)[C@@H](O)[C@H]2O)c2nc(N)[nH]c(=O)c21 [LOX, 7-allyl-7,8-dihydro-8-oxo-guanosine] | able to stimulate IL-6 release | failed to induce IL-6 | 10 | > 500 | > 500 |  |  |
| C=CCn1c(=O)n([C@@H]2O[C@H](COC(=O)c3ccc(NN)nc3)[C@@H](O)[C@H]2O)c2nc(N)[nH]c(=O)c21 [LD1, ((2R,3S,4R,5R)-5-(7-allyl-2-amino-6,8-dioxo-1,6,7,8-tetrahydropurin-9-yl)-3,4-dihydroxy-tetrahydrofuran-2-yl)methyl 6-hydrazinylnicotinate] | did not stimulate IL-6 |  |  |  |  |  |  |
| B1 |  |  |  |  |  | efficiently responded to analog or native MART-1 peptides presented by T2 cells | more efficient in priming than unconjugated protein |
